Results from paper PMC9913705, “Novel Non-Cyclooxygenase Inhibitory Derivative of Sulindac Inhibits Breast Cancer Cell Growth In Vitro and Reduces Mammary Tumorigenesis in Rats” (Cancers, 2023).
Like-named read-outs stand apart in the source and are kept apart here.

How the values were obtained:
[1] = system: human breast cancer cell lines; conditions: same cell lines and treatment conditions; read-out: IC50 for human breast cancer cell growth (range over cell lines); cited from earlier work
purified ovine COX-1 = target: T1, purified ovine COX-1 (Ovis aries, UniProt P05979); assay: COX-1 colorimetric activity assay (Cayman kit); format: biochemical
T1 construct: purchased Cayman Chemical Company
T1 sequence (P05979 25-600): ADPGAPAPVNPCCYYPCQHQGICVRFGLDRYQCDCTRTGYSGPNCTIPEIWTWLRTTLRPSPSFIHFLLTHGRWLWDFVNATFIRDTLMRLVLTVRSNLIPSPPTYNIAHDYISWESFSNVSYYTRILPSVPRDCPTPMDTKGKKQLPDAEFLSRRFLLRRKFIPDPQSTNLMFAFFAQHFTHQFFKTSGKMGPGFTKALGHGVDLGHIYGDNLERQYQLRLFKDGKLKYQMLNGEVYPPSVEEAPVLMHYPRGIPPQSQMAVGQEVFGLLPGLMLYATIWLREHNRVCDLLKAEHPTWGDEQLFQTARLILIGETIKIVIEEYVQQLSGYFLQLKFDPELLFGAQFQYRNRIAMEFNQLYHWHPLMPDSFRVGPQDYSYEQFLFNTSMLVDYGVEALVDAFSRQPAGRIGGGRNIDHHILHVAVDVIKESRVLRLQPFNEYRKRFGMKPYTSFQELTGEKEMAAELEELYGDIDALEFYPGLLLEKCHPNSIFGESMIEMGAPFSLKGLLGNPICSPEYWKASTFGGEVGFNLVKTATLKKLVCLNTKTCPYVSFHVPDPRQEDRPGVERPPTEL
Procedure: (§1) COX-1 and COX-2 activities were measured using purified ovine COX-1 and COX-2 with colorimetric assay kits obtained from Cayman Chemical Company (Ann Arbor, MI, USA) according to the manufacturer’s protocol. After the addition of arachidonic acid and incubation at 25 °C for 5 min, COX activity was determined by measuring absorbance at 590 nm.

purified ovine COX-2 = target: T2, purified ovine COX-2 (Ovis aries, UniProt P79208); assay: COX-2 colorimetric activity assay (Cayman kit); format: biochemical; conditions: purified enzyme
T2 construct: purchased Cayman Chemical Company
T2 sequence (P79208 17-603): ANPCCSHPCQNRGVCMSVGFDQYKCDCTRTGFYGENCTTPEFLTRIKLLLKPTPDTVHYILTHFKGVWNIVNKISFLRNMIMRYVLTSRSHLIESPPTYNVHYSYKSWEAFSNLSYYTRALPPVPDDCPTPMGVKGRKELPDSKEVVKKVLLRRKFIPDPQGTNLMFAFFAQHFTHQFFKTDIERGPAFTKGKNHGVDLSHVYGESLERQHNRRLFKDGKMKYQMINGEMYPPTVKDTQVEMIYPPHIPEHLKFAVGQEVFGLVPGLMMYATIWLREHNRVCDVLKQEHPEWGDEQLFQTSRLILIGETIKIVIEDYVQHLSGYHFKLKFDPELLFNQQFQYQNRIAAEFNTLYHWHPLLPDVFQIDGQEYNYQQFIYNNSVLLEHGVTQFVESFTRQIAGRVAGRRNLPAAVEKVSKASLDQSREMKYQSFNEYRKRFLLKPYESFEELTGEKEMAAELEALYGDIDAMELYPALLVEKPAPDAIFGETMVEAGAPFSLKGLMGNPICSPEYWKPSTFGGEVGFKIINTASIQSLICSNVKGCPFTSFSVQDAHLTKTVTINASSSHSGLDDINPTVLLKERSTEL
Procedure: as §1

[2] = system: human breast cancer cell lines; assay: Growth inhibition, Cell Titer Glo, panel of human breast cancer cell lines; format: cell-based
Procedure: (§2) The human breast tumor cell lines Hs578t, MCF7, MDA-MB-231, SKBr3, and ZR75-1 were obtained from ATCC (Manassas, VA, USA) and grown in RPMI 1640 media containing L-glutamine, 5% fetal bovine serum, and penicillin/streptomycin at 37 °C in a humidified atmosphere with 5% CO2.
(§3) Growth inhibition was measured using the Promega (Madison, WI, USA) Cell Titer Glo Assay following manufacturer’s specifications. First, 96-well tissue culture treated microtiter plates were seeded at a density of 5000 cells per well and incubated at 37 °C for 24 h prior to drug treatment. After treatment, plates were incubated 72 h prior to assay.

Hs578t = assay: Growth inhibition, Cell Titer Glo; format: cell-based; conditions: Homo sapiens, Hs-578T, 72 h, 2D
Procedure: as §2, §3

MCF7 = assay: Growth inhibition, Cell Titer Glo; format: cell-based; conditions: Homo sapiens; MCF7, 72 h, 2D
Procedure: as §2, §3

MDA-MB-231 = assay: Growth inhibition, Cell Titer Glo; format: cell-based; conditions: Homo sapiens; MDA-MB-231, 72 h, 2D
Procedure: as §2, §3

SKBr3 = assay: Growth inhibition, Cell Titer Glo; format: cell-based; conditions: Homo sapiens, SK-BR-3; SKBr3, 72 h, 2D
Procedure: as §2, §3

ZR75-1 = assay: Growth inhibition, Cell Titer Glo; format: cell-based; conditions: Homo sapiens, ZR-75-1; ZR75-1, 72 h, 2D
Procedure: as §2, §3

[3] = system: Hs578t, MDA-MB-231, SKBr3, and ZR75-1 cells; assay: Caspase 3/7 Glo assay; format: cell-based, human; conditions: 6 h treatment; range over Hs578t, MDA-MB-231, SKBr3, ZR75-1
Procedure: (§4) Caspase activation was measured using Promega’s Caspase 3/7 Glo Assay following the manufacturer’s specifications. First, 96-well tissue culture treated microtiter plates were seeded at a density of 10,000 cells per well and incubated at 37 °C for 24 h prior to drug treatment. After treatment, plates were incubated 6 h prior to assay.

MCF7 cells = assay: Caspase 3/7 Glo assay; format: cell-based, human; conditions: MCF7, 6 h treatment
Procedure: as §4

SKBr3 cells = assay: APO-BrdU TUNEL assay (DNA fragmentation), flow cytometry; format: cell-based, human; conditions: 24 h
Procedure: A terminal deoxynucleotidyl transferase dUTP nick end labeling (TUNEL) assay was performed in SKBr3 cells using the Invitrogen APO-BrdU TUNEL Assay (Waltham, MA, USA) according to the manufacturer’s protocol, and fluorescence was measured using a Guava EasyCyte (Hayward, CA, USA) flow cytometry system. First, 10 cm tissue culture treated dishes were seeded at a density of 2,000,000 cells per dish and incubated at […] for 24 h prior to drug treatment. After treatment, cells were incubated for 24 h and then collected and fixed with 4% paraformaldehyde for 15 min on ice, washed with phosphate buffered saline (PBS), and incubated in 70% ethanol at −20 °C for 4–24 h prior to assay.

[4] = system: MDA-MB-231 breast tumor cells; assay: 3D HuBiogel mini-tumor growth, calcein-AM live imaging; format: cell-based, human; conditions: MDA-MB-231, calcein AM live imaging
Procedure: Viable mini-tumors (1 mm in size) of MDA-MB-231 breast tumor cells were generated using the three-dimensional human Biogel culture system from Vivo Biosciences (Birmingham, AL, USA). Accordingly, 20,000 cells were mixed with HuBiogel beads and cultivated in rotary bioreactors for 3 days. Live cell imaging was performed using Calcein- acetoxymethyl (calcein-AM) staining.

recombinant PDE5 = target: T3, recombinant PDE5 (Homo sapiens, UniProt O76074); assay: PDE activity, IMAP fluorescence polarization assay; format: biochemical
T3 construct: purchased BPS Biosciences
Procedure: (§5) PDE activity was measured using the Molecular Devices (San Diego, CA, USA) IMAP fluorescence polarization assay as previously described. Recombinant PDE5 was purchased from BPS Biosciences (San Diego, CA, USA).

[5] = system: cGMP PDE in MDA-MB-231 whole cell lysate; assay: cGMP hydrolysis in whole cell lysate, IMAP assay; format: biochemical, human; conditions: 100 µM
Procedure: as §5

[6] = system: cGMP PDE in SKBr3 whole cell lysate; assay: cGMP hydrolysis in whole cell lysate, IMAP assay; format: biochemical, human; conditions: 100 µM
Procedure: as §5

MDA-MB-231 cells = assay: Intracellular cGMP levels; format: cell-based, human; conditions: intact MDA-MB-231, 30 min, concentrations comparable with growth IC50
Procedure: Intracellular levels of cGMP were measured in MDA-MB-231 cells after 30 min of drug treatment, as previously described.

[7] = system: MDA-MB-231 breast cancer cells; assay: Western blotting of phospho-VASP Ser239, cyclin D1, survivin; format: cell-based, human; conditions: 7.5 µM
Procedure: All antibodies were obtained from Cell Signaling Technologies (Danvers, MA, USA). Cells were harvested and vortexed in ice cold lysis buffer containing 20 mM tris acetate, 5mM magnesium acetate, 1 mM ethylene glycol-bis(β-aminoethyl ether)-N,N,N′,N′-tetraacetic acid (EGTA), 0.8% Triton X-100, 50 mM sodium fluoride, 1.25 mM sodium vanadate, and protease inhibitor cocktail at pH 7.4. Lysates were centrifuged at 10,000× g for 10 min at 4 °C. Protein contents were determined using the Thermo/Pierce (Waltham, MA, USA) bicinchoninic acid (BCA) protein assay following the manufacturer’s specifications.
Proteins (15 µg) from lysed cells were separated by sodium dodecyl sulfate polyacrylamide gel electrophoresis (SDS-PAGE) in a 12% polyacrylamide gel followed by electrophoretic transfer to a nitrocellulose membrane. The membranes were blocked with 5% nonfat dry milk in tris-buffered saline (TBS) containing 0.05% Tween-20. Membranes were incubated with primary antibody at 4 °C overnight followed by incubation with secondary antibody conjugated to horseradish peroxidase for 2 h at room temperature. Protein bands were visualized using Millipore Immobilon enhanced chemiluminescence (ECL) substrate on HyBlot CL autoradiography film.

Hs578t cells = assay: Tcf transcriptional activity, Super8XTOPFlash luciferase reporter; format: cell-based, human; conditions: 24 h
Procedure: Tcf transcriptional activity was measured in Hs578t cells. Cells were seeded in 24-well tissue culture treated plates. After 24 h of incubation, cells were transiently transfected with 0.1 µg of Promega β-galactosidase-expressing vector and 0.1 µg of Super8XTOPFlash construct, which was kindly provided by Randall T. Moon from the University of Washington (Seattle, WA, USA). After 24 h of transfection, cells were treated with compound and incubated for an additional 24 h. Cells were lysed, and luciferase and β-galactosidase activities were measured using assay systems from Promega (Madison, WI, USA), following the manufacturer’s instructions. Luciferase activity was normalized to β-galactosidase activity.

[8] = system: MNU-induced mammary tumors; assay: MNU model of mammary carcinogenesis; format: in vivo; conditions: for reduction in tumor incidence compared to vehicle control / reduction in tumor multiplicity compared to vehicle control: 126 days after MNU
Procedure: In vivo efficacy was evaluated using the N-methyl-N-nitrosourea (MNU) model of mammary carcinogenesis, as previously described. Briefly, female Sprague-Dawley rats were obtained from Envigo (formerly Harlan Sprague-Dawley, Inc.) (Indianapolis, IN, USA) at 28 days of age and placed on a Teklad 4% fat diet on the day of arrival. Within one week of arrival, rats were randomly assigned to groups (15 rats/group), ear marked for identification, and weighed to ensure statistically similar average body weights per group. At 50 days of age, rats received one IV injection of MNU (75 mg/kg) via the jugular vein. Rats were administered 800 or 1200 ppm of SSA or vehicle control in diet beginning 3 days after MNU administration. Rats were weighed once per week, palpated for mammary tumors twice per week, and checked daily for signs of toxicity. The study was terminated at 126 days after MNU administration. All mammary tumors were weighed when removed at necropsy, weighed, and processed for histological classification and analysis. The protocol used for this study was approved by the University of Alabama at Birmingham (UAB) IACUC where the study was performed.

[9] = Plasma levels after dietary feeding; format: in vivo, Sprague-Dawley rats; conditions: diet containing 1000, 2000, or 3000 ppm

CSc1ccc(/C=C2/C(C)=C(CC(=O)O)c3cc(F)ccc32)cc1 [SS, sulindac sulfide]
IC50 [1]: 58.8 to 83.7 µM

CSc1ccc(/C=C2/C(C)=C(CC(=O)NCCN(C)C)c3cc(F)ccc32)cc1 [SSA, sulindac sulfide amide]
IC50 (purified ovine COX-1; purified enzyme): 81.6 µM | fold less potent than sulindac sulfide (SS) in inhibiting COX-1 (purified ovine COX-1; vs SS): 68 fold | IC50 (purified ovine COX-2): > 200 µM | IC50 ([2]; Homo sapiens, 72 h treatment, 2D growth, read-out: IC50 for human breast cancer cell growth (range over cell lines)): 3.9 to 7.1 µM | fold more potent than SS in inhibiting growth and inducing apoptosis in breast cancer cells ([2]; vs SS): 10 fold | IC50 (Hs578t): 7 µM | IC50 (MCF7): 7 µM | IC50 (MDA-MB-231): 6.5 µM | IC50 (SKBr3): 3.9 µM | IC50 (ZR75-1): 7.1 µM | increase in activity of caspases 3 and 7 [3]: 2 to 6 fold | caspase activation (MCF7 cells): no increase | TUNEL Positive (SKBr3 cells; 10 μM): 2% | TUNEL Positive (SKBr3 cells; 25 μM): 59% | TUNEL Positive (SKBr3 cells; 50 μM): 86% | cell growth in 3D HuBiogel [4]: markedly reduced | inhibition at 25 µM (recombinant PDE5): 55% | inhibition of cGMP hydrolysis [5]: 38% | inhibition of cGMP hydrolysis [6]: 65% | intracellular cGMP levels (MDA-MB-231 cells): increased intracellular cGMP levels | VASP phosphorylation at serine 239 (PKG activity marker) ([7]; MDA-MB-231): significantly increased | time of peak VASP phosphorylation ([7]; MDA-MB-231): 1 h | cyclin D1 protein levels ([7]; after 1 h): decreased appreciably | survivin protein levels ([7]; after 7 h): decreased appreciably | reduction of Tcf transcriptional activity (Hs578t cells; 5 µM): 14% | reduction of Tcf transcriptional activity (Hs578t cells; 20 µM): 60% | change in body weight ([8]; 800 and 1200 ppm in diet, 126-day study): Neither dose of SSA resulted in a significant change | reduction in tumor incidence compared to vehicle control ([8]; 800 ppm in diet): 22% | reduction in tumor multiplicity compared to vehicle control ([8]; 800 ppm in diet): 31% | reduction in tumor incidence compared to vehicle control ([8]; 1200 ppm in diet): 43% | reduction in tumor multiplicity compared to vehicle control ([8]; 1200 ppm in diet): 62% | reduction in the incidence of tumors ([8]; abstract, dose not stated): 57% | reduction in the multiplicity of tumors ([8]; abstract, dose not stated): 62% | toxicity observed in rats ([8]; long-term dietary treatment): no discernable toxicity | plasma levels [9]: exceed the concentrations necessary for SSA to activate cGMP signaling and inhibit growth in breast cancer cells in vitro
